# Results taken from the supplement of paper PMC10307832.
# Legend:
# Assay in all cases: relative viability (nuclei count vs DMSO), 5 days (fraction); higher = more cells survive
# [1] = compound: C1CNCCC1C2=CC(=NN2)C3=CC=NC=C3 + Cc1cc(Nc2cc(N3CCN(C)CC3)nc(Sc3ccc(NC(=O)C4CC4)cc3)n2)n[nH]1 [Tozasertib] (partner 0.1 µM)
# Procedure, shortened: (§1)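 Lung cancer cell lines were seeded in 1536-well plates and dosed by pin tool the next day, with either a single drug or a fixed anchor-drug dose combined with five library-drug doses (not always all listed) spaced in √10 steps. Five days later, one step fixed the cells and stained their nuclei (final 0.05% Triton X-100, 1% formaldehyde, 1 ug/ml Hoechst), and nuclei were counted on 4× images. Relative viability is the nuclei count in treated wells divided by the count in vehicle wells, and each value is the median of duplicate plates.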
# [2] = compound: C[C@@H](N)c1ccc(C(=O)Nc2ccnc3[nH]ccc23)cc1 + COc1cccc2cc(-c3nc([C@H]4CC[C@H](C(=O)O)CC4)n4ncnc(N)c34)[nH]c12 [OSI-027] (partner 0.5 µM)
# Procedure, shortened: as §1
# Tanzisertib + Pictilisib = compound: O[C@H]1CC[C@H](Nc2ncc3nc(Nc4c(F)cc(F)cc4F)n([C@H]4CCOC4)c3n2)CC1 [Tanzisertib] + CS(=O)(=O)N1CCN(Cc2cc3nc(-c4cccc5[nH]ncc45)nc(N4CCOCC4)c3s2)CC1 [Pictilisib] (partner 1 µM)
# Procedure, shortened: as §1
# Tanzisertib + Vorinostat = compound: O[C@H]1CC[C@H](Nc2ncc3nc(Nc4c(F)cc(F)cc4F)n([C@H]4CCOC4)c3n2)CC1 [Tanzisertib] + O=C(CCCCCCC(=O)Nc1ccccc1)NO [Vorinostat] (partner 1 µM)
# Procedure, shortened: as §1
Cell Line,relative viability ([1]; first compound 0.08 µM),relative viability ([1]; first compound 0.8 µM),relative viability ([1]; first compound 2.53 µM),relative viability ([1]; first compound 8 µM),relative viability ([2]; first compound 0.04 µM),relative viability ([2]; first compound 0.1265 µM),relative viability ([2]; first compound 0.4 µM),relative viability ([2]; first compound 1.265 µM),relative viability ([2]; first compound 4 µM),relative viability (Tanzisertib + Pictilisib; first compound 0.08 µM),relative viability (Tanzisertib + Pictilisib; first compound 0.253 µM),relative viability (Tanzisertib + Pictilisib; first compound 0.8 µM),relative viability (Tanzisertib + Pictilisib; first compound 2.53 µM),relative viability (Tanzisertib + Pictilisib; first compound 8 µM),relative viability (Tanzisertib + Vorinostat; first compound 0.08 µM),relative viability (Tanzisertib + Vorinostat; first compound 0.253 µM),relative viability (Tanzisertib + Vorinostat; first compound 0.8 µM),relative viability (Tanzisertib + Vorinostat; first compound 2.53 µM),relative viability (Tanzisertib + Vorinostat; first compound 8 µM)
201T,0.944,0.944,0.893,0.951,0.844,0.835,0.961,1.01,0.856,0.748,0.676,0.684,0.687,0.649,1.03,1.01,0.996,0.988,0.764
A549,–,–,–,–,–,–,–,–,–,0.564,0.496,0.588,0.534,0.428,–,–,–,–,–
A-427,0.203,0.214,0.19,0.22,0.407,0.392,0.509,–,0.466,0.822,0.728,0.704,0.683,0.606,0.897,0.833,0.874,0.884,0.77
ABC-1,0.145,0.17,0.201,0.176,0.502,0.603,0.559,–,0.511,0.906,0.837,0.686,0.764,0.785,1.22,1.58,1.15,1.1,0.786
BEN,0.575,0.514,0.45,0.513,0.293,0.307,0.3,0.314,0.284,0.577,0.555,0.612,0.561,0.48,0.593,0.583,0.613,0.588,0.611
CAL-12T,0.334,0.34,0.313,0.342,1.19,0.784,0.928,0.3,0.78,0.416,0.468,0.438,0.485,0.353,0.896,0.663,0.909,0.893,0.755
COR-L23,0.222,0.201,0.229,0.172,0.775,0.838,0.755,0.748,0.669,0.922,0.736,0.781,0.97,0.869,0.438,0.504,0.479,0.494,0.537
COR-L 105,0.348,0.311,0.348,0.349,0.719,0.943,0.852,0.517,0.563,0.428,0.387,0.404,0.442,0.263,0.834,0.893,0.828,0.903,1
Calu-6,–,–,–,–,–,–,–,–,–,0.901,1.01,0.865,1.03,0.976,–,–,–,–,–
ChaGo-K-1,0.237,0.223,0.232,0.216,0.496,0.487,0.487,0.297,0.564,0.657,0.819,0.845,0.627,0.482,0.81,0.801,0.71,0.779,0.57
EBC-1,–,–,–,–,–,–,–,–,–,0.468,0.454,0.405,0.338,0.275,–,–,–,–,–
EKVX,0.396,0.303,0.491,0.401,0.609,0.798,0.832,0.761,0.727,0.425,0.392,0.405,0.42,0.329,0.711,0.691,0.852,0.741,0.676
EMC-BAC-2,0.28,0.311,0.319,0.263,0.294,0.399,0.299,0.346,0.279,0.606,0.534,0.57,0.528,0.419,0.46,0.849,0.464,0.5,0.217
EPLC-272H,0.357,0.221,0.367,0.314,0.285,0.308,0.308,0.244,0.293,0.396,0.328,0.397,0.337,0.199,0.515,0.35,0.487,0.483,0.358
H3255,0.709,0.795,0.806,0.606,0.624,0.727,0.745,0.725,0.783,0.548,0.452,0.487,0.457,0.253,0.818,0.938,0.787,0.721,0.345
HARA,0.12,0.0979,0.11,0.0912,–,0.437,0.638,–,0.481,0.475,0.337,0.321,0.436,0.412,0.558,0.556,–,0.385,0.585
HCC-15,0.517,0.372,0.484,0.355,0.695,0.632,0.681,–,0.619,0.836,0.651,0.786,0.698,0.494,0.91,0.766,0.857,0.807,0.923
HCC-44,0.873,1.32,1.1,0.897,0.37,0.433,0.644,0.19,0.482,0.638,0.701,0.565,0.442,0.569,1.22,1.16,1.19,1.19,1.25
HCC-78,0.439,0.325,0.459,0.392,0.54,0.389,0.476,0.388,0.544,0.215,0.175,0.23,0.219,0.192,0.505,0.455,0.461,0.403,0.447
